Key:
Type in all cases: in vivo
[1] = tested on: blackgrass (Alopecurus myosuroides); experiment: Test C preemergence, plant response rating; conditions: Alopecurus myosuroides, pre-emergence, Preemergence
Summary of the method: (§1)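 Greenhouse plants rated visually against untreated controls 13–15 d after treatment, scale 0 = no effect to 100 = complete control. Postemergence sprays went onto potted plants 2–18 cm tall (1–4 leaves); preemergence sprays onto soil freshly sown in loam–sand or silt loam, chemicals formulated in non-phytotoxic solvent with surfactant.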

corn (Zea mays) = experiment: Test C preemergence, plant response rating; conditions: Zea mays, pre-emergence, Preemergence
Summary of the method: as §1

[2] = tested on: crabgrass, large (large crabgrass, Digitaria sanguinalis); experiment: Test C preemergence, plant response rating; conditions: Digitaria sanguinalis, pre-emergence, Preemergence
Summary of the method: as §1

[3] = tested on: foxtail, giant (giant foxtail, Setaria faberii); experiment: Test C preemergence, plant response rating; conditions: Setaria faberi, pre-emergence, Preemergence
Summary of the method: as §1

[4] = tested on: lambsquarters (Chenopodium album); experiment: Test C preemergence, plant response rating; conditions: Chenopodium album, pre-emergence, Preemergence
Summary of the method: as §1

[5] = tested on: morningglory (Ipomoea coccinea); experiment: Test C preemergence, plant response rating; conditions: Ipomoea, pre-emergence, Preemergence
Summary of the method: as §1

[6] = tested on: nutsedge, yellow (yellow nutsedge, Cyperus esculentus); experiment: Test C preemergence, plant response rating; conditions: Cyperus, pre-emergence, Preemergence
Summary of the method: as §1

[7] = tested on: oilseed rape (Brassica napus); experiment: Test C preemergence, plant response rating; conditions: Brassica napus, pre-emergence, Preemergence
Summary of the method: as §1

[8] = tested on: ragweed (common ragweed, Ambrosia elatior); experiment: Test C preemergence, plant response rating; conditions: Ambrosia artemisiifolia, pre-emergence, Preemergence
Summary of the method: as §1

[9] = tested on: ryegrass, Italian (Italian ryegrass, Lolium multiflorum); experiment: Test C preemergence, plant response rating; conditions: Lolium multiflorum, pre-emergence, Preemergence
Summary of the method: as §1

soybean (Glycine max) = experiment: Test C preemergence, plant response rating; conditions: Glycine max, pre-emergence, Preemergence
Summary of the method: as §1

[10] = tested on: velvetleaf (Abutilon theophrasti); experiment: Test C preemergence, plant response rating; conditions: Abutilon theophrasti, pre-emergence, Preemergence
Summary of the method: as §1

[11] = tested on: waterhemp (common waterhemp, Amaranthus rudis); experiment: Test C preemergence, plant response rating; conditions: Amaranthus tuberculatus, pre-emergence, Preemergence
Summary of the method: as §1

[12] = tested on: wheat (winter wheat, Triticum aestivum); experiment: Test C preemergence, plant response rating; conditions: Triticum aestivum, pre-emergence, Preemergence
Summary of the method: as §1

[13] = tested on: barnyardgrass (Echinochloa crus-galli); experiment: Test C postemergence, plant response rating; conditions: Echinochloa crus-galli, post-emergence
Summary of the method: as §1

[14] = tested on: blackgrass (Alopecurus myosuroides); experiment: Test C postemergence, plant response rating; conditions: Alopecurus myosuroides, post-emergence
Summary of the method: as §1

[15] = tested on: foxtail, giant (giant foxtail, Setaria faberii); experiment: Test C postemergence, plant response rating; conditions: Setaria faberi, post-emergence
Summary of the method: as §1

[16] = tested on: morningglory (Ipomoea coccinea); experiment: Test C postemergence, plant response rating; conditions: Ipomoea, post-emergence
Summary of the method: as §1

[17] = tested on: oilseed rape (Brassica napus); experiment: Test C postemergence, plant response rating; conditions: Brassica napus, post-emergence
Summary of the method: as §1

[18] = tested on: velvetleaf (Abutilon theophrasti); experiment: Test C postemergence, plant response rating; conditions: Abutilon theophrasti, post-emergence
Summary of the method: as §1

[19] = tested on: wheat (winter wheat, Triticum aestivum); experiment: Test C postemergence, plant response rating; conditions: Triticum aestivum, post-emergence
Summary of the method: as §1

[20] = 62 g ai/ha, scale 0 to 100 (0 no effect, 100 complete control)
[21] = 125 g ai/ha, scale 0 to 100 (0 no effect, 100 complete control)

Structure (SMILES): O=C(OCCCC(F)(F)F)c1c(Br)cccc1Oc1ncc(Cl)cn1 [Compound 20, 4,4,4-trifluorobutyl 2-bromo-6-[(5-chloro-2-pyrimidinyl)oxy]benzoate]
- pest or weed control at 62 g/ha ([1]; 62 g ai/ha, scale of 0 to 100): 85%
- pest or weed control at 125 g/ha ([1]; 125 g ai/ha, scale of 0 to 100): 100%
- pest or weed control at 16 g/ha ([1]; 16 g ai/ha, scale 0 to 100): 0%
- pest or weed control at 31 g/ha ([1]; 31 g ai/ha, scale 0 to 100): 40%
- Corn plant response rating (crop injury, 0 = no effect, 100 = complete kill) at 62 g/ha (corn (Zea mays); 62 g ai/ha, scale of 0 to 100): 0%
- Corn plant response rating (crop injury, 0 = no effect, 100 = complete kill) at 125 g/ha (corn (Zea mays); 125 g ai/ha, scale of 0 to 100): 30%
- Corn plant response rating (crop injury, 0 = no effect, 100 = complete kill) at 16 g/ha (corn (Zea mays); 16 g ai/ha, scale 0 to 100): 0%
- Corn plant response rating (crop injury, 0 = no effect, 100 = complete kill) at 31 g/ha (corn (Zea mays); 31 g ai/ha, scale 0 to 100): 0%
- pest or weed control at 62 g/ha ([2]; 62 g ai/ha, scale of 0 to 100): 98%
- pest or weed control at 125 g/ha ([2]; 125 g ai/ha, scale of 0 to 100): 100%
- pest or weed control at 16 g/ha ([2]; 16 g ai/ha, scale 0 to 100): 5%
- pest or weed control at 31 g/ha ([2]; 31 g ai/ha, scale 0 to 100): 50%
- pest or weed control at 62 g/ha ([3]; 62 g ai/ha, scale of 0 to 100): 90%
- pest or weed control at 125 g/ha ([3]; 125 g ai/ha, scale of 0 to 100): 100%
- pest or weed control at 16 g/ha ([3]; 16 g ai/ha, scale 0 to 100): 35%
- pest or weed control at 31 g/ha ([3]; 31 g ai/ha, scale 0 to 100): 50%
- pest or weed control at 125 g/ha ([4]; 125 g ai/ha, scale of 0 to 100): 90%
- pest or weed control at 16 g/ha ([4]; 16 g ai/ha, scale 0 to 100): 0%
- pest or weed control at 31 g/ha ([4]; 31 g ai/ha, scale 0 to 100): 5%
- pest or weed control at 62 g/ha ([4]; 62 g ai/ha, scale 0 to 100): 10%
- pest or weed control at 125 g/ha ([5]; 125 g ai/ha, scale of 0 to 100): 10%
- pest or weed control at 16 g/ha ([5]; 16 g ai/ha, scale 0 to 100): 0%
- pest or weed control at 31 g/ha ([5]; 31 g ai/ha, scale 0 to 100): 0%
- pest or weed control at 62 g/ha ([5]; 62 g ai/ha, scale 0 to 100): 5%
- pest or weed control at 125 g/ha ([6]; 125 g ai/ha, scale of 0 to 100): 10%
- pest or weed control at 16 g/ha ([6]; 16 g ai/ha, scale 0 to 100): 0%
- pest or weed control at 31 g/ha ([6]; 31 g ai/ha, scale 0 to 100): 0%
- pest or weed control at 62 g/ha ([6]; 62 g ai/ha, scale 0 to 100): 0%
- plant injury at 125 g/ha ([7]; 125 g ai/ha, scale of 0 to 100): 50%
- plant injury at 16 g/ha ([7]; 16 g ai/ha, scale 0 to 100): 0%
- plant injury at 31 g/ha ([7]; 31 g ai/ha, scale 0 to 100): 0%
- plant injury at 62 g/ha ([7]; 62 g ai/ha, scale 0 to 100): 50%
- pest or weed control at 125 g/ha ([8]; 125 g ai/ha, scale of 0 to 100): 0%
- pest or weed control at 16 g/ha ([8]; 16 g ai/ha, scale 0 to 100): 0%
- pest or weed control at 31 g/ha ([8]; 31 g ai/ha, scale 0 to 100): 0%
- pest or weed control at 62 g/ha ([8]; 62 g ai/ha, scale 0 to 100): 0%
- pest or weed control at 125 g/ha ([9]; 125 g ai/ha, scale of 0 to 100): 70%
- pest or weed control at 16 g/ha ([9]; 16 g ai/ha, scale 0 to 100): 0%
- pest or weed control at 31 g/ha ([9]; 31 g ai/ha, scale 0 to 100): 0%
- pest or weed control at 62 g/ha ([9]; 62 g ai/ha, scale 0 to 100): 30%
- plant injury at 125 g/ha (soybean (Glycine max); 125 g ai/ha, scale of 0 to 100): 10%
- plant injury at 16 g/ha (soybean (Glycine max); 16 g ai/ha, scale 0 to 100): 0%
- plant injury at 31 g/ha (soybean (Glycine max); 31 g ai/ha, scale 0 to 100): 0%
- plant injury at 62 g/ha (soybean (Glycine max); 62 g ai/ha, scale 0 to 100): 0%
- pest or weed control at 125 g/ha ([10]; 125 g ai/ha, scale of 0 to 100): 50%
- pest or weed control at 16 g/ha ([10]; 16 g ai/ha, scale 0 to 100): 0%
- pest or weed control at 31 g/ha ([10]; 31 g ai/ha, scale 0 to 100): 0%
- pest or weed control at 62 g/ha ([10]; 62 g ai/ha, scale 0 to 100): 5%
- pest or weed control at 125 g/ha ([11]; 125 g ai/ha, scale of 0 to 100): 98%
- pest or weed control at 16 g/ha ([11]; 16 g ai/ha, scale 0 to 100): 30%
- pest or weed control at 31 g/ha ([11]; 31 g ai/ha, scale 0 to 100): 85%
- pest or weed control at 62 g/ha ([11]; 62 g ai/ha, scale 0 to 100): 100%
- plant injury at 125 g/ha ([12]; 125 g ai/ha, scale of 0 to 100): 5%
- plant injury at 16 g/ha ([12]; 16 g ai/ha, scale 0 to 100): 0%
- plant injury at 31 g/ha ([12]; 31 g ai/ha, scale 0 to 100): 0%
- plant injury at 62 g/ha ([12]; 62 g ai/ha, scale 0 to 100): 0%
- pest or weed control at 16 g/ha ([13]; 16 g ai/ha, scale 0 to 100): 10%
- pest or weed control at 31 g/ha ([13]; 31 g ai/ha, scale 0 to 100): 10%
- pest or weed control at 62 g/ha [13, 20]: 10%
- pest or weed control at 125 g/ha [13, 21]: 20%
- pest or weed control at 16 g/ha ([14]; 16 g ai/ha, scale 0 to 100): 5%
- pest or weed control at 31 g/ha ([14]; 31 g ai/ha, scale 0 to 100): 5%
- pest or weed control at 62 g/ha [14, 20]: 5%
- pest or weed control at 125 g/ha [14, 21]: 10%
- pest or weed control at 16 g/ha ([15]; 16 g ai/ha, scale 0 to 100): 10%
- pest or weed control at 31 g/ha ([15]; 31 g ai/ha, scale 0 to 100): 10%
- pest or weed control at 62 g/ha [15, 20]: 10%
- pest or weed control at 125 g/ha [15, 21]: 25%
- pest or weed control at 16 g/ha ([16]; 16 g ai/ha, scale 0 to 100): 75%
- pest or weed control at 31 g/ha ([16]; 31 g ai/ha, scale 0 to 100): 65%
- pest or weed control at 62 g/ha [16, 20]: 70%
- pest or weed control at 125 g/ha [16, 21]: 70%
- plant injury at 16 g/ha ([17]; 16 g ai/ha, scale 0 to 100): 50%
- plant injury at 31 g/ha ([17]; 31 g ai/ha, scale 0 to 100): 50%
- plant injury at 62 g/ha [17, 20]: 50%
- plant injury at 125 g/ha [17, 21]: 60%
- pest or weed control at 16 g/ha ([18]; 16 g ai/ha, scale 0 to 100): 20%
- pest or weed control at 31 g/ha ([18]; 31 g ai/ha, scale 0 to 100): 50%
- pest or weed control at 62 g/ha ([18]; 62 g ai/ha, scale 0 to 100 (0 no effect, 100 complete control), read-out: Velvetleaf plant response rating): 40%
- pest or weed control at 125 g/ha [18, 21]: 70%
- plant injury at 16 g/ha ([19]; 16 g ai/ha, scale 0 to 100): 0%
- plant injury at 31 g/ha ([19]; 31 g ai/ha, scale 0 to 100): 0%
- plant injury at 62 g/ha ([19]; 62 g ai/ha, scale 0 to 100 (0 no effect, 100 complete control), read-out: Wheat plant response rating): 5%
- plant injury at 125 g/ha [19, 21]: 5%

From patent US11053204B2, “Pyrimidinyloxy benzene derivatives as herbicides” (FMC Corporation, priority 2015, dated 2021)
